# Several values for one entry are separate records, joined by “and”; a condition that tells them apart may be missing. Equal entries are not always repeated. Where two headings read alike, the source gives them in different places.
# Columns and labels:
# [1] = tested on: rat liver microsomes; parameters: method as in Zhang Y. J. et al., 2021; conditions: ref Zhang Y. J. et al., 2021; cited from earlier work
# [2] = tested on: human liver microsomes (HLMs); experiment: Enzyme kinetics in HLMs; assay type: in vitro ADME; conditions: for Km: n = 3, read-out: Km for metabolite formation
# Protocol: (§1) A series of concentrations (1–300 μM) of tectorigenin, irigenin, or irisflorentin were added to HLMs or recombinant enzymes. Nonlinear regression was performed on the substrate concentration and generation rate of metabolites to investigate the enzymatic kinetic characteristics of these components in the metabolic system. All experiments were carried out in triplicate.
# (§2) A Waters AQUITY UPLC system (Waters, Milford, MA, United States) equipped with a Dikma ODS C18 column (150 × 4.6 mm, 5 μm) was used for separation at 30°C. The binary mobile phase consisted of A (an aqueous solution containing 0.1% acetic acid and 2 mM ammonium acetate) and B (acetonitrile) at a flow rate of 1 mL/min. The elution settings were as follows: 0 → 5 min: 10% B → 20% B; 5 min → 20 min: 20% B → 50% B; 20 min → 21 min: 50% B → 60% B; 21 min → 25 min: 60% B → 90% B; 25 min → 25.1 min 90%–10% B; 25.1 min → 30 min 10% B. Flow rate: 1 mL/min 260 nm was used as the detection wavelength. Calibration standard curves were generated using a reaction mixture containing tectorigenin, irigenin, or irisflorentin at a concentration range of 0.03–10 µM. The concentrations of the metabolites were calculated using a standard curve of the substrates.
# (§3) GraphPad Prism software 5.0 was used to perform non-linear fitting between the metabolite generation rate (V) and substrate concentration [S]. The appropriateness of the enzyme kinetic model was determined using R ^2 and the Eadie-Hofstee fit. The maximum metabolic rate (Vmax) and Michaelis constant (Km) were obtained for kinetic processes that conformed to the Michaelis–Menten model (Equation 1). For kinetic processes that conform to the sigmoidal kinetics model (Equation 2), Vmax, Hill coefficient (n), and S50, concentrations at 50% Vmax were obtained. Intrinsic clearance (Clint) was calculated according to Equation 3 (for the Michaelis–Menten model) and Equation 4 (for the sigmoidal kinetics model). All data are expressed as mean ± Standard Error (SE). One - way analysis of variance was used to compare the differences between different groups. A p-value below 0.05 was regarded as statistically significant. V=VmaxS/Km+S (1) V=Vmax+C^n/S50n+C^n (2) Clint=Vmax/Km (3) Clint=Vmax/S50×n−1/nn−1^1/n (4)
# [3] = tested on: human liver microsomes (HLMs); experiment: Metabolic stability and metabolite identification in HLMs; assay type: in vitro ADME; conditions: 30 min
# Protocol: To analyze the metabolic stability, a phase I metabolic system was established. Tectorigenin, irigenin, or irisflorentin (100 μM) was pre-incubated at 37°C with Tris-HCl buffer solution (50 mM), MgCl2 (10 mM), and HLMs (0.5 mg protein/mL). After 5 min, NADPH (1 mM) was added to start the metabolic reactions. After incubation for 30 min, an equal volume of methanol was added to terminate the reaction. After centrifugation, the supernatant was used for metabolite analysis. By comparing the high-performance liquid chromatography (HPLC) chromatograms of the samples incubated for 0 and 30 min to determine the generation of metabolites, mass spectrometry information for the metabolites was obtained using an UPLC-linear ion Trap-Orbitrap Mass Spectrometry method.
# A UPLC system coupled with an LTQ-Orbitrap mass spectrometer (Thermo Fisher Scientific, Waltham, MA, United States) was used. The mass spectrometer was equipped with an electrospray ionization source operating in negative ion mode for tectorigenin and irigenin, and in positive ion mode for irisflorentin. The following parameter settings were used: sheath gas flow rate, 45 arb; auxiliary gas flow rate, 15 arb; capillary temperature, 350°C; spray voltage, 3.8 kV; and heating component temperature, 300°C. Xcalibur software (Thermo Fisher Scientific) was employed to acquire and process the data.
# [4] = tested on: CYP isoenzymes in HLMs; experiment: Inhibition by chemical CYP inhibitors in HLMs; assay type: in vitro ADME, human
# Protocol: To investigate the role of specific CYP subtypes in metabolism, tectorigenin, irigenin, or irisflorentin (100 μM) was co-incubated with HLMs (0.5 mg protein/mL), NADPH (1 mM), and MgCl2 (10 mM) in the presence of known CYP inhibitors. The inhibitors used were α-Naph (20 μM) for CYP1A2 ([Zhang Y. J. et al., 2021]), Tryp (2 μM) for CYP2A6 ([Rodríguez-Morató et al., 2017]), Spz (10 μM) for CYP2C9 ([Berger et al., 2018]), Ticlo (2 μM) for CYP2B6 and 2C19 ([Yang et al., 2019]), Qd (8 μM) for CYP2D6 ([Martin et al., 2022]), DDC (100 μM) for CYP2E1 ([Zhang X. et al., 2021]), and KCZ (1 μM) for CYP3A4 ([Berger et al., 2018]). Finally, the samples obtained by centrifugation after adding ice-cold methanol to the incubated samples were analyzed using HPLC. Samples without inhibitors were used as controls to calculate the inhibition rates. Each inhibitor group and the control group were compared. All experiments were carried out in triplicate.
# [5] = tested on: recombinant CYP enzymes (CYP1A2, CYP2A6, CYP2C8, CYP2C9, CYP2C19, CYP2D6, CYP2E1, CYP3A4); experiment: Reaction phenotyping with recombinant CYP enzymes; assay type: in vitro ADME, human
# Protocol: To assess the role of CYP enzymes to isoflavone metabolism, tectorigenin, irigenin, or irisflorentin (100 μM) was co-incubated with 25 pmol of recombinant CYP enzymes (CYP1A2, CYP2A6, CYP2C8, CYP2C9, CYP2C19, CYP2D6, CYP2E1, and CYP3A4) and MgCl2 (10 mM) in Tris-HCl buffer. The samples were pre-incubated at 37°C for 5 min, and the reaction was initiated by the addition of NADPH. After 30 min of incubation, the supernatant obtained by centrifugation after adding methanol to the incubated sample was analyzed by HPLC. All experiments were carried out in triplicate.
# [6] = biological target: T1, CYP1A2 (Homo sapiens, UniProt P05177); experiment: Enzyme kinetics with recombinant CYP1A2; assay type: in vitro ADME
# T1 construct: purchased CYPEX (Dundee, United Kingdom)
# T1 sequence (P05177 1-516): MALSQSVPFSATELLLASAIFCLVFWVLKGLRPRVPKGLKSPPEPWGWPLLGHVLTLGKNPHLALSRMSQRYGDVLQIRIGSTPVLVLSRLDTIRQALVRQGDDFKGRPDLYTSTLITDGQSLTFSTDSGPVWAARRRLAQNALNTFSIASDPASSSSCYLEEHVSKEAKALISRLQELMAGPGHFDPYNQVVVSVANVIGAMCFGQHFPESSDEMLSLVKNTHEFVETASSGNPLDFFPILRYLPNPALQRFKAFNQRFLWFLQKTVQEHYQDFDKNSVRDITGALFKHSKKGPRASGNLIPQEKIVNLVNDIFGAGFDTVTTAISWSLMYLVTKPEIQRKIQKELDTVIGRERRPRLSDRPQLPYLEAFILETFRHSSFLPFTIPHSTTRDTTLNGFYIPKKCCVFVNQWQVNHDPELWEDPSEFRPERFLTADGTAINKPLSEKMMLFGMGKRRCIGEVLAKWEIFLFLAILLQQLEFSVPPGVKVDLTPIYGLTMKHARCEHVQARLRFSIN
# Protocol: as §1
# (§4) A Waters AQUITY UPLC system (Waters, Milford, MA, United States) equipped with a Dikma ODS C18 column (150 × 4.6 mm, 5 μm) was used for separation at 30°C. The binary mobile phase consisted of A (an aqueous solution containing 0.1% acetic acid and 2 mM ammonium acetate) and B (acetonitrile) at a flow rate of 1 mL/min. […] The concentrations of the metabolites were calculated using a standard curve of the substrates.
# (§5) GraphPad Prism software 5.0 was used to perform non-linear fitting between the metabolite generation rate (V) and substrate concentration [S]. The appropriateness of the enzyme kinetic model was determined using R ^2 and the Eadie-Hofstee fit. […] Intrinsic clearance (Clint) was calculated according to Equation 3 (for the Michaelis–Menten model) and Equation 4 (for the sigmoidal kinetics model). All data are expressed as mean ± Standard Error (SE). […]
# [7] = biological target: T2, CYP2E1 (Homo sapiens, UniProt P05181); experiment: Enzyme kinetics with recombinant CYP2E1; assay type: in vitro ADME
# T2 construct: purchased CYPEX (Dundee, United Kingdom)
# Protocol: as §1, §4, §5
# [8] = Enzyme kinetics in HLMs; assay type: in vitro ADME, human; conditions: human, human liver microsomes, calculated from Vmax and Km or S50, read-out: Clint for metabolite formation
# Protocol: as §1, §2, §3
# [9] = biological target: T3, CYP3A4 (Homo sapiens, UniProt P08684); experiment: Enzyme kinetics with recombinant CYP3A4; assay type: in vitro ADME
# T3 construct: purchased CYPEX (Dundee, United Kingdom)
# Protocol: as §1, §4, §5
# [10] = biological target: T4, CYP2C19 (Homo sapiens, UniProt P33261); experiment: Enzyme kinetics with recombinant CYP2C19; assay type: in vitro ADME
# T4 construct: purchased CYPEX (Dundee, United Kingdom)
# Protocol: as §1, §4, §5
# [11] = Michaelis-Menten model, mean ± SE
# T3 sequence (P08684 whole entry): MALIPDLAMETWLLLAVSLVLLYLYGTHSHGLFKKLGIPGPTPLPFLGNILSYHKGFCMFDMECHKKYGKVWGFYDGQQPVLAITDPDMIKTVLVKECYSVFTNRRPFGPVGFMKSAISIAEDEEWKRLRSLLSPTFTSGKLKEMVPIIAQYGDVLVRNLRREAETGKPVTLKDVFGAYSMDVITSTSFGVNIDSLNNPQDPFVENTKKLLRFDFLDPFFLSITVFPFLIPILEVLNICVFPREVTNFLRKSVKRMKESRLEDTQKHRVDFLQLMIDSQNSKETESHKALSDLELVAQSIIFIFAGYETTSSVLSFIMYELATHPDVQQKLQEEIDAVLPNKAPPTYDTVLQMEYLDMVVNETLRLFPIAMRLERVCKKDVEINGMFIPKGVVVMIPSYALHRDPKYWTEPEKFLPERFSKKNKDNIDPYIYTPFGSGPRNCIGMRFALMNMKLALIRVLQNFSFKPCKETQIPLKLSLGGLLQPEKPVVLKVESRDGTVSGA
# T4 sequence (P33261 whole entry): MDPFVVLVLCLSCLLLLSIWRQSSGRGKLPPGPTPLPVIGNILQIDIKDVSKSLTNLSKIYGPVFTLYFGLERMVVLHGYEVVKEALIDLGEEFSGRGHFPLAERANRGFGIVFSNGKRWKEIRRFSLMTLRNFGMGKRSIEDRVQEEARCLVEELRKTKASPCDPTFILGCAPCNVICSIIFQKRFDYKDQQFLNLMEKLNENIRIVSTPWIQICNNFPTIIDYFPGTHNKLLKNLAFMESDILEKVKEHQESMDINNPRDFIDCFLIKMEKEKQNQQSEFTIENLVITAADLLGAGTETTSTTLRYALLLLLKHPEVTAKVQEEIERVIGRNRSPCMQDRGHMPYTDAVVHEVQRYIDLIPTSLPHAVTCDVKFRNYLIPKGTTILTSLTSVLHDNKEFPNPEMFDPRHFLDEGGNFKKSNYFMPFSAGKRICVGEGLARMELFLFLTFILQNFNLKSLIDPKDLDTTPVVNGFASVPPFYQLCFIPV
# T2 sequence (P05181 whole entry): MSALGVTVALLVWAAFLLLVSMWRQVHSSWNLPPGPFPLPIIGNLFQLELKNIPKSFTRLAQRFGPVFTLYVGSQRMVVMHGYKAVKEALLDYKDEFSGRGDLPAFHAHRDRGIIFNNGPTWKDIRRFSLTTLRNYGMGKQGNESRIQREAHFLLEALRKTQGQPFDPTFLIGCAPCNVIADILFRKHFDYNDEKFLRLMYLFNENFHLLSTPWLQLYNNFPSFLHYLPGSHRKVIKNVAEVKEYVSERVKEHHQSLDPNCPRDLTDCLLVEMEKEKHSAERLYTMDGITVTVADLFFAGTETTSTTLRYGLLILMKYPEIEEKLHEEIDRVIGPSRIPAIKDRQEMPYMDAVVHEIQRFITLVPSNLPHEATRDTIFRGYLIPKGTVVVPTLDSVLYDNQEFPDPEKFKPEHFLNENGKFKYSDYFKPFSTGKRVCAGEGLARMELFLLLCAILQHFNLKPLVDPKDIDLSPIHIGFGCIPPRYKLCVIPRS
compound,measurement,setting,value
COc1cc(-c2coc3cc4c(c(OC)c3c2=O)OCO4)cc(OC)c1OC [Irisflorentin],Hill coefficient,[1],1.48
same,enzyme kinetic model (Eadie-Hofstee plot),[2],sigmoidal kinetics characteristic
same,Vmax for metabolite formation,"[2]; mean ± SE, n = 3",235.4 ± 3.2 pmol/min/mg protein
same,Hill coefficient (n),[2]; sigmoidal kinetics model,1.8 ± 0.1
same,S50,"[2]; sigmoidal kinetics model, mean ± SE, n = 3",32.9 ± 1.0 µM
same,major metabolite after incubation with HLMs,"[3]; human, 100 μM","6,7-dihydroxy-5,3′,4′,5′-tetramethoxy isoflavone"
same,effect of Ticlo on metabolite formation (in words),[4],no effect or a weak inhibitory effect
same,effect of α-Naph on metabolite formation (in words),[4],strong inhibition
same,"metabolism by CYP1A2 relative to CYP2C9, CYP2C19 and CYP3A4","[5]; human, 30 min, 100 μM",21–55 times
same,recombinant CYP subtypes that catalyze metabolite formation,"[5]; human, 30 min, 100 μM","CYP1A2, CYP2C19, and CYP3A4"
same,Hill coefficient,"[6]; recombinant CYP1A2, sigmoidal kinetics",1.5 ± 0.1 and 1.5
same,Clint,"[6]; recombinant CYP1A2, sigmoidal kinetics model",1.5 μL/min/pmol CYP
COc1c(O)cc2occ(-c3ccc(O)cc3)c(=O)c2c1O [Tectorigenin],Clint,[7],0.2 μL/min/pmol CYP
same,microsomal CLint,[8],2.6 µL/min/mg
same,enzyme kinetic model (Eadie-Hofstee plot),[2],Michaelis–Menten equation
same,Km,[2]; [11],106 ± 7.3 µM
same,Vmax for metabolite formation,"[2]; mean ± SE, n = 3",275.9 ± 7.6 pmol/min/mg protein
same,major metabolite after incubation with HLMs,"[3]; 100 μM substrate, HLMs 0.5 mg protein/mL, NADPH 1 mM",hydroxylation metabolite of tectorigenin
same,effect of Ticlo on metabolite formation (in words),"[4]; inhibitor Ticlo (CYP2B6 and 2C19 inhibitor), HLMs",no effect or a weak inhibitory effect
same,effect of α-Naph on metabolite formation (in words),"[4]; inhibitor α-Naph (CYP1A2 inhibitor), HLMs",slight inhibition
same,Clint,[9],0.2 μL/min/pmol CYP
same,production of metabolites by CYP2E1 and CYP3A4 relative to the other subtypes,"[5]; human, 30 min, 100 μM",3–38 times
same,recombinant CYP subtypes that catalyze metabolite formation,"[5]; human, 30 min, 100 μM","CYP1A2, CYP2C19, CYP2E1, and CYP3A4"
COc1cc(-c2coc3cc(O)c(OC)c(O)c3c2=O)cc(O)c1OC [Irigenin],enzyme kinetic model (Eadie-Hofstee plot),[2],Michaelis–Menten equation
same,Vmax for metabolite formation,"[2]; Michaelis-Menten model, mean ± SE, n = 3",263 ± 13.6 pmol/min/mg
same,Km,[2]; [11],17.5 ± 3.2 µM
same,Clint,[10],0.5 μL/min/pmol CYP
same,effect of Ticlo on metabolite formation (in words),[4],significantly inhibited
same,recombinant CYP subtypes that catalyze metabolite formation,"[5]; 100 μM substrate, 25 pmol recombinant CYP, 30 min, eight subtypes measured","CYP3A4, CYP2C9, and CYP2C19"
same,metabolism by CYP2C19 relative to CYP2C9 and CYP3A4,"[5]; recombinant enzymes, CYP2C19 vs CYP2C9 and CYP3A4",10–29 times

# — PMC11850249, “Typical and atypical metabolic characteristics of three iridaceae isoflavone components: in vitro and in silico studies” (Frontiers in Pharmacology, 2025)
